Source: ChEMBL document CHEMBL1135856, “Identification of unique VLA-4 antagonists from a combinatorial library” (Bioorg Med Chem Lett, 2002)

Molecular target: Integrin alpha-4/beta-1 (Homo sapiens, UniProt P05556+P13612)
Experiment: Inhibition of [125I]VCAM-Ig binding to Alpha-4 beta-1 (VLA-4) of Jurkat cells
Assay type: cell-based

Integrin alpha-4/beta-1, sequence (P05556 whole entry): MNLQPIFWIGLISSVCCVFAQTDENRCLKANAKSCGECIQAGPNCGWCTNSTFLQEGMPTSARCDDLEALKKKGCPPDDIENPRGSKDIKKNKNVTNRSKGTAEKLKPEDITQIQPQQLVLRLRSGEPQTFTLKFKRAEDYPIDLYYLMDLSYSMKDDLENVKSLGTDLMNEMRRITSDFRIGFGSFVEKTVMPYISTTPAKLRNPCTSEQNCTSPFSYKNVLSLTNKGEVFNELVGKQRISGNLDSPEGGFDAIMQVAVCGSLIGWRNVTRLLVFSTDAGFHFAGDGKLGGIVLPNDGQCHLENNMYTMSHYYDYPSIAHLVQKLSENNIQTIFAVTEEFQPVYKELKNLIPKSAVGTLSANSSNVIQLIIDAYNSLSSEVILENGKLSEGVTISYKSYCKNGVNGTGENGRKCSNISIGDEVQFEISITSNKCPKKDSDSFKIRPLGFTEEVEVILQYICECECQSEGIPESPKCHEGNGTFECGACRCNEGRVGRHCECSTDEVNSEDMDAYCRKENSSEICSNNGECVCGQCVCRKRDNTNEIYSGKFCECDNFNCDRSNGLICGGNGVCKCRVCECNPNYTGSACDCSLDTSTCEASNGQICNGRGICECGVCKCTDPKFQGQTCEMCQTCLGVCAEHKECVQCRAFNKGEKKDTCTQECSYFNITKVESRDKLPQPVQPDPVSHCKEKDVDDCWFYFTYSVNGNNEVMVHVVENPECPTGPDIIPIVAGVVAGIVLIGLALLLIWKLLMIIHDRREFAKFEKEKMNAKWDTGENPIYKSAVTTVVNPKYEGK
Integrin alpha-4/beta-1, sequence (P13612 whole entry): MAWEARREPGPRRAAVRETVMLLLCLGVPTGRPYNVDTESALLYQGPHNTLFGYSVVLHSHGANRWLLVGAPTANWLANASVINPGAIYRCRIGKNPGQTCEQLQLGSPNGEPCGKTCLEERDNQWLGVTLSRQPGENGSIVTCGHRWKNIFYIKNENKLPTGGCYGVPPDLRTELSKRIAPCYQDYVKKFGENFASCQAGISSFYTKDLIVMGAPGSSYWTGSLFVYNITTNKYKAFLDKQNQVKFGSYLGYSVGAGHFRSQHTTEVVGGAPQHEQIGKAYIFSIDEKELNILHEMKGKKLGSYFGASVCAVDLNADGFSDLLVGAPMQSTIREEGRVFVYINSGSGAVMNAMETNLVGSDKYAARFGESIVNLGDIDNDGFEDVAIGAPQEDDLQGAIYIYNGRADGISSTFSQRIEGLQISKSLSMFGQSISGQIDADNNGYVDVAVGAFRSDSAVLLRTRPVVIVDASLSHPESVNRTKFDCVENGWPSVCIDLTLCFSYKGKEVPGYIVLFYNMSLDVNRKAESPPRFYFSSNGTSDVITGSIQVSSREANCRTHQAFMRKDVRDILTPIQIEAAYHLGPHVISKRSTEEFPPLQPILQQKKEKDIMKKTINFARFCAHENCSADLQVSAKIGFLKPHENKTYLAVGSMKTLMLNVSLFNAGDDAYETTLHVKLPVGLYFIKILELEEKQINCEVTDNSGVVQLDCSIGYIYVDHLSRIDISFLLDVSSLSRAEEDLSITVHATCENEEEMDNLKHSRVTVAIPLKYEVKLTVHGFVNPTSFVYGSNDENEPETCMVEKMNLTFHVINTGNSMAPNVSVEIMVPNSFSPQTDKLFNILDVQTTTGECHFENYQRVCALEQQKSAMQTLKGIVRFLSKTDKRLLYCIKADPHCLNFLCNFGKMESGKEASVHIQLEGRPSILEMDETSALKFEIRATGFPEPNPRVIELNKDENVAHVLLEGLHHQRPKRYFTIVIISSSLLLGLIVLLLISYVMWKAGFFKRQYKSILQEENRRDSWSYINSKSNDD

SMILES: CCCC[C@H](NC(=O)[C@@H]1Cc2ccccc2CN1S(=O)(=O)c1ccc(OC)c(OC)c1)C(=O)O
- IC50: 0.53 nM

SMILES: O=C(N[C@@H](Cc1ccc(-c2ccccc2)cc1)C(=O)O)c1ccc(CNS(=O)(=O)c2cc(Cl)cc(Cl)c2)cc1
- IC50: 3.6 nM

SMILES: Cc1ccccc1NC(=O)Nc1ccc(CC(=O)C2CCC(C(=O)N[C@@H](Cc3ccccc3)C(=O)O)(c3ccccc3)CC2)cc1 (some centres undefined)
- IC50: 8.1 nM

SMILES: Cc1ccccc1NC(=O)Nc1ccc(CC(=O)N(CC(=O)NC(CC(=O)O)c2ccccc2)C2CCCCC2)cc1 (centres undefined)
- IC50: 3.2 nM
